The text below walks through data of the Deep4Chem optical property database.

The nature of the series: solvent given as SMILES.

Structures are written as SMILES.

`O=C(O)c1ccc(C2=C(/C=C/c3[se]c4ccccc4[n+]3CCCCS(=O)(=O)[O-])CCC/C2=C\C=C2/[Se]c3ccccc3N2CCCCS(=O)(=O)[O-])cc1` came in with an absorption maximum (in CO) of 800 nm.
On to `N#Cc1nc2cnc(N)nc2n1Cc1ccccc1`, for which the absorption maximum is 331 nm (in C1COCCO1); 330 nm (in CC#N); 333 nm (in CO); 326 nm (in ClCCl); 331 nm (in O).
Regarding `COc1ccc(-c2sc3c(-c4ccc(OC)cc4)c4n(c3c2-c2ccc(OC)cc2)[B-](F)(F)[N+]2=Cc3c(-c5ccc(OC)cc5)c5sc(-c6ccc(OC)cc6)c(-c6ccc(OC)cc6)c5n3[B-](F)(F)[N+]2=C4)cc1`, the absorption maximum reads like this: (in CC#N) 587 nm; (in CCCCCC) 595 nm; (in CN(C)C=O) 593 nm; (in Cc1ccccc1) 610 nm; (in ClCCl) 600 nm.
On to `COC1=[N+]2C(=C(c3ccc(C)cc3)c3ccc(OC)n3[B-]2(F)F)C=C1`, for which the absorption maximum is, setting by setting: (in C1CCCCC1) 513 nm; (in C1CCOC1) 514 nm; (in CC#N) 510 nm; (in CCOC(C)=O) 512 nm; (in CO) 510 nm; (in Cc1ccccc1) 517 nm. The same compound showed an absorption maximum (in ClC(Cl)Cl) of 516 nm.
`CCCCCCC(CCCCCC)N1C(=O)c2cccc3c(-c4ccc([Si](C)(C)C)cc4)ccc(c23)C1=O`: the absorption maximum is recorded as 343.4 nm (in CCCCCC); 344.4 nm (in CCCCCCCCCCCCCC); 355 nm (in CCCCCCCCCCCO); 357.6 nm (in CCCCO); 356 nm (in CN(C)C=O); 353.4 nm (in Cc1ccccc1). For the same compound, where the note is “in ClC(Cl)Cl”, the absorption maximum came to 356 nm.
For the setting “in CCCCCCC”, `c1cc2c3c(cccc3c1)-c1c-2ccc2ccc3ccccc3c12` returned an absorption maximum of 408 nm.
For `CCCCOC(=O)c1cc(Oc2ccc(OC)cc2)c2c3c(Cl)cc4c5c(cc(Cl)c(c6c(Oc7ccc(OC)cc7)cc(C(=O)OCCCC)c1c26)c53)C(=O)N(c1c(C(C)C)cccc1C(C)C)C4=O`, under “in Cc1ccccc1”, the absorption maximum was 531 nm.
Turning to `N#CC=C(c1ccc(N2c3ccccc3Oc3ccccc32)cc1)c1ccc(N2c3ccccc3Oc3ccccc32)cc1`, the absorption maximum (in Cc1ccccc1) came to 405 nm.
On to `CCCCCCCCCCCCC(CCCCCCCCCC)Cn1c2cc(/C=C/c3nc4ccccc4s3)c3cccc4c5cccc6c(/C=C/c7nc8ccccc8s7)cc1c(c65)c2c34` (stereo not given), for which the absorption maximum reads like this: (in C1CCCCC1) 517 nm; (in CC#N) 516 nm; (in Cc1ccccc1) 524 nm; (in ClCCl) 521 nm.
In the case of `CCCCCOc1cc2oc(=O)c3c4occc4c4ccc5cccc6c(c1)c2c3c4c56`, the absorption maximum (in C1CCOC1) is given as 422 nm.
Turning to `CCOC(=O)CSc1nc2c(c(C#N)c1C#N)CCCC2`, for the setting “in c1ccccc1”, the absorption maximum was 364 nm.
Consider `CCCCCCCCN1C(=O)c2ccc3c4c(-c5ccc6c7ccccc7n(-c7ccccc7)c6c5)cc5c6c(ccc(c7c(-c8ccc9c%10ccccc%10n(-c%10ccccc%10)c9c8)cc(c2c37)C1=O)c64)C(=O)N(CCCCCCCC)C5=O`, for which the absorption maximum (in ClC(Cl)Cl) stood at 577 nm.
Turning to `c1ccc(Nc2nc(Nc3ccccc3)nc(Nc3ccc4cc5ccccc5cc4c3)n2)cc1`, the absorption maximum runs as follows: (in C1COCCO1) 402 nm; (in CC#N) 401 nm; (in CCCCOCCCC) 402 nm; (in CCOC(C)=O) 402 nm.
Regarding `CN(CCO)c1ccc(/N=N/c2ccc([N+](=O)[O-])cc2)cc1`, the absorption maximum by setting is: (in CO) 487 nm; (in OCC(O)CO) 509 nm; (in OCCO) 498 nm; (in Oc1ccccc1) 548 nm.
On to `CN(C)c1ccc(C(=O)c2ccccc2)cc1`, for which the absorption maximum runs as follows: (in C1CCCCC1) 325 nm; (in CC#N) 345 nm; (in CO) 355 nm; (in CS(C)=O) 350 nm; (in c1ccccc1) 340 nm.
In turn, `CCN(CC)c1ccc(-c2nc3c(c4c2-c2ccccc2CC4)-c2ccccc2CC3)cc1` gave an absorption maximum (in C1CCOC1) of 357 nm; an absorption maximum (in CC#N) of 360 nm; an absorption maximum (in CCCCCC) of 355 nm; an absorption maximum (in CCOC(C)=O) of 346 nm; an absorption maximum (in CO) of 352 nm; an absorption maximum (in CS(C)=O) of 361 nm. In addition, the absorption maximum by setting is: (in Cc1ccccc1) 359 nm; (in ClCCl) 357 nm.
In turn, `C(#Cc1ccncc1)C(C#Cc1ccncc1)=Cc1ccc(C=C(C#Cc2ccncc2)C#Cc2ccncc2)s1` registered an absorption maximum (in ClC(Cl)Cl) of 522 nm.
Compound `Cc1ccccc1C` gave an absorption maximum (in C1CCCCC1) of 258.26 nm.
Take `C(=C\c1ccncn1)/c1ccc(N(c2ccccc2)c2ccccc2)cc1`: the absorption maximum is listed as 398 nm (in C1CCOC1); 394 nm (in CC#N); 392 nm (in CCCCCCC); 401 nm (in CS(C)=O); 400 nm (in ClCCl).
`CC(=O)O[B-]1(OC(C)=O)OC(/C=C/C=C/c2ccccc2)=CC(/C=C/C=C/c2ccccc2)=[O+]1`: the absorption maximum reads like this: (in C1CCOC1) 468 nm; (in CC#N) 472 nm; (in CC(C)=O) 468 nm; (in CS(C)=O) 478 nm; (in Cc1ccccc1) 470 nm; (in ClC(Cl)Cl) 474 nm. The same compound gave an absorption maximum (in ClCCl) of 474 nm.
As for `CCCCCCN1C(=O)c2cccc3cc(/N=C\c4nc5ccccc5s4)cc(c23)C1=O`, where the note is “in ClC(Cl)Cl”, the absorption maximum was determined as 370 nm.
The compound `CCOC(=O)c1c(-c2cc3c(ccc4ccccc43)oc2=O)nn(-c2cccc(C)c2)c1C(=O)OCC` showed an absorption maximum (in ClCCl) of 361 nm.
In turn, `CCn1c2ccccc2c2cc(-c3cc(-c4ccc5c(c4)c4ccccc4n5CC)nc(-c4ccc(C#N)cc4)n3)ccc21` displayed an absorption maximum (in C1CCOC1) of 367 nm; an absorption maximum (in CCOC(C)=O) of 363 nm; an absorption maximum (in CN(C)C=O) of 370 nm; an absorption maximum (in Cc1ccccc1) of 366 nm; an absorption maximum (in ClCCl) of 365 nm.
`Nc1ccc(C#Cc2ccc3ccc4ccc(C#Cc5ccc(N)cc5)c5ccc2c3c45)cc1` came in with an absorption maximum (in C1COCCO1) of 420 nm; an absorption maximum (in CC(C)=O) of 421 nm; an absorption maximum (in CCCCCC) of 421 nm; an absorption maximum (in CCCCCCO) of 421 nm; an absorption maximum (in CCO) of 419 nm; an absorption maximum (in CCOC(C)=O) of 419 nm. The absorption maximum is, setting by setting: (in CO) 415 nm; (in Cc1ccccc1) 417 nm; (in ClCCl) 417 nm.
As to `c1cc(-c2c3ccccc3c(-c3ccc4ccccc4c3)c3ccccc23)cc(-n2c3ccccc3c3ccccc32)c1`, the absorption maximum (in ClCCl) was determined as 376 nm.
As to `O=Cc1ccc(C2=C3C=c4c(oc5ccccc45)=[N+]3[B-](F)(F)n3c2cc2c4ccccc4oc23)cc1`, the absorption maximum is, setting by setting: (in C1CCCCC1) 592.5 nm; (in C1CCOC1) 589 nm; (in CC#N) 585.5 nm; (in CCOC(C)=O) 587 nm; (in CN(C)C=O) 589 nm; (in CO) 583 nm. Moreover, the absorption maximum is, setting by setting: (in Cc1ccccc1) 597 nm; (in ClCCl) 593.5 nm.
Compound `CCOC(=O)C1(O)c2cc3ccc4cccc5ccc(c2C(=O)N1C(C)(C)C)c3c45` (stereo not given) displayed an absorption maximum (in ClC(Cl)Cl) of 385 nm.
For `Cc1c(C)n2c(COC(=O)CNC(=O)OC(C)(C)C)c(C)c(=O)n2c1=O`, the absorption maximum (in CCO) worked out at 374 nm.
In the case of `c1ccc(-c2nc(-c3ccc(-c4ccc(-c5ccc(-c6nc(-c7ccccc7)c(-c7ccccc7)o6)cc5)cc4)cc3)oc2-c2ccccc2)cc1`, the absorption maximum (in C1COCCO1) is recorded as 352 nm.
For `CCC1(CC)c2cc(Br)ccc2-c2c1c1c(c3c2C(CC)(CC)c2cc(-c4cccs4)ccc2-3)C(CC)(CC)c2cc(-c3cccs3)ccc2-1`, the absorption maximum (in C1CCOC1) came to 338 nm.
Compound `Cc1ccc(N2C(c3ccccc3[NH-])=[NH+]C(c3ccccc3)C2c2ccccc2)cc1` (stereo not given) displayed an absorption maximum (in Cc1ccccc1) of 328 nm.
For `C[N+]1=C(/C=C/C=C2/N(CCCS(=O)(=O)[O-])c3ccccc3C2(C)C)C(C)(C)c2ccccc21`, the absorption maximum (in CS(C)=O) is given as 553 nm.
Take `Cc1ccc(C(=O)/C=C2\C(=O)Nc3ccccc32)cc1C`: the absorption maximum (in C1CCCCC1) turned out to be 335 nm; the absorption maximum (in C1COCCO1) is 335 nm; the absorption maximum (in CCCCCC) was 333 nm; the absorption maximum (in CCOC(C)=O) came to 335 nm; the absorption maximum (in CN(C)C=O) amounted to 338 nm; the absorption maximum (in ClCCl) was 336 nm. For the same compound, the absorption maximum (in O) came out at 338 nm.
As to `N#Cc1cc2ccccc2oc1=O`, the absorption maximum was determined as 342 nm (in C1CCCCC1); 338 nm (in C1CCOC1); 336 nm (in CC#N); 339 nm (in CCOC(C)=O); 334 nm (in CS(C)=O); 340 nm (in ClC(Cl)Cl).
In turn, `CC1=[N+]2C(=C(c3ccc(C(=C(c4ccccc4)c4ccccc4)c4ccccc4)cc3)c3ccc(/C=C/c4ccc(C(=C(c5ccccc5)c5ccccc5)c5ccccc5)cc4)n3[B-]2(F)F)C=C1` gave an absorption maximum (in C1CCOC1) of 587 nm.
In turn, `CCCCCCCCCCOc1cc2cc(C#Cc3ccc(/C=C(\C#N)C(=O)O)cc3)c(=O)oc2cc1OCCCCCCCCCC` displayed an absorption maximum (in CC#N) of 398 nm.
`CCCCCCCCCCCCN1C(=O)c2c(c3ccc4cc(-c5ccc(C#N)cc5)c(OC)cc4c3c3c2ccc2cc(-c4ccc(C#N)cc4)c(OC)cc23)C1=O` had an absorption maximum (in ClCCl) of 427 nm.
In turn, `CCC[Si](CCC)(CCC)c1cc2ccc3cccc4ccc(c1C(=O)NC(C)(C)C)c2c34` yielded an absorption maximum (in ClC(Cl)Cl) of 382 nm.
Take `CCCCCCCC[n+]1ccc(-c2cc[n+](CCCCCCCC)cc2)cc1`: the absorption maximum (in CC#N) is given as 264 nm.
`F[B-]1(F)n2c(cc3oc4ccccc4c32)C(c2ccc(I)cc2)=C2C=c3oc4ccccc4c3=[N+]21` returned an absorption maximum (in ClC(Cl)Cl) of 637 nm.
